# Patent US20150087662A1, “CYCLOBUTANE AND METHYLCYCLOBUTANE DERIVATIVES AS JANUS KINASE INHIBITORS” (Incyte Corporation, priority 2010, published 2015)
# Where a name gives a salt, the structure may show the parent alone.
# Key:
# [1] = biological target: T1, human JAK1 (a.a. 837-1142) (Homo sapiens, UniProt P23458); test: In vitro JAK kinase assay (HTRF), JAK1; format: biochemical; conditions: catalytic domain, ATP 90 μM, 500 nM peptide, room temperature 1 hr
# T1 construct: human JAK1 (a.a. 837-1142); His tag (N); made in house; host or cells: insect cells (baculovirus)
# T1 sequence (P23458 849-1154): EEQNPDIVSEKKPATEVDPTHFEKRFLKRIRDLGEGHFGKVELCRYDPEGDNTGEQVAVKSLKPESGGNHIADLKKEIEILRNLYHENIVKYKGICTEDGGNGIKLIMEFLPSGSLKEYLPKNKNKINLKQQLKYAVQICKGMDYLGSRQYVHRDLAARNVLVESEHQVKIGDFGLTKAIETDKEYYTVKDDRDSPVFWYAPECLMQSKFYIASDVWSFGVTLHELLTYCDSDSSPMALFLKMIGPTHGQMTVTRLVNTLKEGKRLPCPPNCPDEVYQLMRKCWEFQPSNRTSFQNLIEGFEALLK
# Method: (§1) Compounds herein were tested for inhibitory activity of JAK targets according to the following in vitro assay described in Park et al., Analytical Biochemistry 1999, 269, 94-104. The catalytic domains of human JAK1 (a.a. 837-1142), JAK2 (a.a. 828-1132) and JAK3 (a.a. 781-1124) with an N-terminal His tag were expressed using baculovirus in insect cells and purified. The catalytic activity of JAK1, JAK2 or JAK3 was assayed by measuring the phosphorylation of a biotinylated peptide. The phosphorylated peptide was detected by homogenous time resolved fluorescence (HTRF). IC50s of compounds were measured for each kinase in the reactions that contain the enzyme, ATP and 500 nM peptide in 50 mM Tris (pH 7.8) buffer with 100 mM NaCl, 5 mM DTT, and 0.1 mg/mL (0.01%) BSA. The ATP concentration in the reactions was 90 μM for JAK1, 30 μM for JAK2 and 3 μM for JAK3. Reactions were carried out at room temperature for 1 hr and then stopped with 20 μL 45 mM EDTA, 300 nM SA-APC, 6 nM Eu-Py20 in assay buffer (Perkin Elmer, Boston, Mass.). Binding to the Europium labeled antibody took place for 40 minutes and HTRF signal was measured on a Fusion plate reader (Perkin Elmer, Boston, Mass.).
# JAK2 (a.a. 828-1132) = biological target: T2, JAK2 (a.a. 828-1132) (Homo sapiens, UniProt O60674); test: In vitro JAK kinase assay (HTRF), JAK2; format: biochemical; conditions: catalytic domain, ATP 30 μM, 500 nM peptide, room temperature 1 hr
# T2 construct: JAK2 (a.a. 828-1132); His tag (N); made in house; host or cells: insect cells (baculovirus)
# T2 sequence (O60674 828-1132): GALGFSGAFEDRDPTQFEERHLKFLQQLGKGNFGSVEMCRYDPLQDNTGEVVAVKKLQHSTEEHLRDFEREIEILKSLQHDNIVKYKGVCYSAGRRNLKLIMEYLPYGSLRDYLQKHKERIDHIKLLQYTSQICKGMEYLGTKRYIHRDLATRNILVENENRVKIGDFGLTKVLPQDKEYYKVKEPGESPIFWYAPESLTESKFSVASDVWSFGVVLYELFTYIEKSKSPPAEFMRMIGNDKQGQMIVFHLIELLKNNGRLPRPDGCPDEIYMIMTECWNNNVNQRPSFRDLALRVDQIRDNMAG
# Method: as §1
IC50 [1] [nM],IC50 (JAK2 (a.a. 828-1132)) [nM],Compound
< 2,< 1,"N#CCC(C1CCC1)n1cc(-c2ncnc3[nH]ccc23)cn1 (single isomer, unassigned) [Example 1, (R or S)-3-Cyclobutyl-3-[4-(7H-pyrrolo[2,3-d]pyrimidin-4-yl)-1H-pyrazol-1-yl]propanenitrile]"
< 2,< 1,"C[C@H]1C[C@H](C(CC#N)n2cc(-c3ncnc4[nH]ccc34)cn2)C1 (single isomer, unassigned) [Example 2, (3R or 3S)-3-(4-(7H-Pyrrolo[2,3-d]pyrimidin-4-yl)-1H-pyrazol-1-yl)-3-((trans)-3-methylcyclobutyl)propanenitrile phosphoric acid salt]"
< 2,< 1,"C[C@H]1C[C@@H](C(CC#N)n2cc(-c3ncnc4[nH]ccc34)cn2)C1 (single isomer, unassigned) [Example 3, (3R or 3S)-3-(4-(7H-Pyrrolo[2,3-d]pyrimidin-4-yl)-1H-pyrazol-1-yl)-3-((cis)-3-methylcyclobutyl)-propanenitrile phosphoric acid salt]"
